Common to all, as to assay: ≥ marks a high value that may be exact or a test limit, other limits are often not marked, values filed in µg/mL are converted to µM
Experiment [1] relates to Escherichia coli ATCC 25726.
The test system of experiment [2] is Batrachochytrium dendrobatidis JEL-197.
In experiment [3] the test system is Candida albicans ATCC 90028.
For experiment [4], the system named is Staphylococcus aureus ATCC 25923.
In experiment [5] the test system is Staphylococcus epidermidis.
In experiment [6] the test system is Listeria innocua.
Experiment [7] relates to Escherichia coli.
Experiment [8] deals with Pasteurella multocida.
Experiment [9] concerns Staphylococcus aureus.
Experiment [10] deals with Leuconostoc lactis.
For experiment [11], the system named is Streptococcus uberis.
For experiment [12], the system named is Bacillus cereus.
Experiment [13] concerns Micrococcus luteus.
Experiment [14] concerns Escherichia coli O111.
Experiment [15] has as its system Bacillus subtilis.
The test system of experiment [16] is Escherichia coli ML-35p.
Experiment [17] deals with Candida albicans ATCC 2002.
Experiment [18] relates to Staphylococcus aureus ATCC 43300.

SMILES strings stand for the structures. ≈ marks a conversion by molar mass, not a printed value.

In general, MIC refers to the lowest concentration found to suppress growth. Read a high MIC as a need for much substance. In the case of `CC[C@H](C)[C@@H]1NC(=O)[C@H](CC(C)C)NC(=O)[C@@H](NC(=O)[C@@H](NC(=O)[C@H](CC(C)C)NC(=O)[C@H](CCCCN)NC(=O)[C@@H]2CCCN2C(=O)[C@@H](NC(=O)[C@H](CCSC)NC(=O)[C@H](CO)NC(=O)[C@H](C)NC(=O)[C@H](C)NC(=O)[C@H](CC(C)C)NC(=O)CNC(=O)[C@H](C)NC(=O)[C@H](CC(C)C)NC(=O)[C@H](CCSC)NC(=O)[C@@H]2CCCN2C(=O)[C@H](CC(C)C)NC(=O)[C@@H](N)Cc2ccccc2)C(C)C)C(C)C)CSSC[C@@H](C(=O)O)NC(=O)[C@H](CCCCN)NC(=O)[C@H](CCCCN)NC(=O)[C@H]([C@@H](C)O)NC1=O` [FLPMLAGLAASMVPKLVCLITKKC], the MIC in experiment [1] is at least 50 µM; in experiment [2] it was 12.5 µM (≈ 31.8 µg/mL); in experiment [3] it was 12 µM (≈ 30.6 µg/mL); in [4], 6 µM (≈ 15.3 µg/mL).
As to `CC[C@H](C)[C@H](NC(=O)[C@@H](NC(=O)CN)C(C)C)C(=O)N[C@@H](CC(=O)O)C(=O)N[C@@H](C)C(=O)N[C@@H](C)C(=O)N[C@@H](C)C(=O)N[C@@H](CCCCN)C(=O)N[C@H](C(=O)N[C@H](C(=O)N[C@@H](CC(N)=O)C(=O)N[C@H](C(=O)N[C@@H](CC(C)C)C(=O)N[C@@H](CCCCN)C(=O)N[C@@H](CC(N)=O)C(=O)N[C@@H](CC(C)C)C(=O)N[C@@H](Cc1ccccc1)C(N)=O)C(C)C)C(C)C)C(C)C` [GVIDAAAKVVNVLKNLF], the MIC in experiment [5] was at least 56.5 µM; in experiment [6] it was at least 56.5 µM; in experiment [7] it was above 56.5 µM; in experiment [8], at least 56.5 µM; in experiment [9], above 56.5 µM; in experiment [10], 6.78 µM (≈ 12 µg/mL). For the same compound, the MIC is 28.2 µM (≈ 50 µg/mL) in experiment [11], at least 56.5 µM in experiment [12] and at least 56.5 µM in experiment [13].
For `CC[C@H](C)[C@H](NC(=O)[C@H](CO)NC(=O)[C@@H]1CCCN1C(=O)[C@@H](NC(=O)[C@H](CC(C)C)NC(=O)CNC(=O)[C@H](C)NC(=O)[C@H](CC(C)C)NC(=O)[C@@H](NC(=O)[C@@H]1CCCN1C(=O)[C@H](CC(C)C)NC(=O)[C@@H](N)Cc1ccccc1)C(C)C)[C@@H](C)O)C(=O)N[C@H](C(=O)N1CCC[C@H]1C(=O)N[C@@H](CCCCN)C(=O)N[C@@H](CC(C)C)C(=O)N[C@H](C(=O)N[C@H]1CSSC[C@@H](C(=O)O)NC(=O)[C@H](CCCCN)NC(=O)[C@H](CCCCN)NC(=O)[C@H]([C@@H](C)O)NC(=O)[C@H](CC(C)C)NC(=O)[C@H](CC(C)C)NC1=O)C(C)C)C(C)C` [FLPVLAGLTPSIVPKLVCLLTKKC], the MIC in experiment [1] was at least 100 µM; in [2], 12.5 µM (≈ 31.9 µg/mL); in [3], 25 µM (≈ 63.8 µg/mL); in [4] it was 25 µM (≈ 63.8 µg/mL).
For the compound `CC[C@H](C)[C@H](NC(=O)[C@H](C)NC(=O)[C@@H]1CCCN1C(=O)[C@H](CC(C)C)NC(=O)[C@@H](NC(=O)[C@H](Cc1cnc[nH]1)NC(=O)[C@H](CO)NC(=O)[C@@H](NC(=O)[C@@H](NC(=O)[C@H](CO)NC(=O)CNC(=O)[C@H](CC(C)C)NC(=O)[C@H](CC(C)C)NC(=O)CNC(=O)[C@H](CC(C)C)NC(=O)[C@H](CC(C)C)NC(=O)CN)C(C)C)C(C)C)C(C)C)C(=O)N[C@H](C(=O)N[C@@H](CCC(N)=O)C(=O)N[C@@H](Cc1cnc[nH]1)C(=O)N[C@@H](CC(C)C)C(N)=O)[C@@H](C)O` [GLLGLLGSVVSHVLPAITQHL], the MIC in experiment [5] is 23.5 µM (≈ 50 µg/mL); in experiment [6], at least 47.1 µM; in experiment [7], above 47.1 µM; in [8], at least 47.1 µM; in experiment [9], 23.5 µM (≈ 50 µg/mL); in [10], 2.82 µM (≈ 6 µg/mL). Moreover, the MIC in [11] is 23.5 µM (≈ 50 µg/mL); in experiment [12], at least 47.1 µM; in [13], 23.5 µM (≈ 50 µg/mL).
Compound `CC[C@H](C)[C@H](NC(=O)[C@H](CO)NC(=O)[C@@H]1CCCN1C(=O)[C@H](C)NC(=O)CNC(=O)[C@H](CC(C)C)NC(=O)[C@H](CCCCN)NC(=O)[C@H](CCCN=C(N)N)NC(=O)[C@H](CCSC)NC(=O)[C@H](CCCN=C(N)N)NC(=O)[C@H](CCCN=C(N)N)NC(=O)[C@H](CCC(N)=O)NC(=O)[C@@H](N)Cc1c[nH]c2ccccc12)C(=O)N[C@H](C(=O)O)[C@@H](C)O` [WQRRMRKLGAPSIT] returned an MIC in [14] of at least 58.8 µM.
Take `CC[C@H](C)[C@H](NC(=O)[C@@H](NC(=O)[C@H](CO)NC(=O)[C@H](C)NC(=O)[C@@H](NC(=O)[C@H](CCCCN)NC(=O)[C@H](CCCCN)NC(=O)[C@@H](NC(=O)[C@@H](NC(=O)[C@H](CC(=O)O)NC(=O)[C@H](Cc1ccccc1)NC(=O)[C@H](CC(C)C)NC(=O)CN)C(C)C)[C@@H](C)CC)C(C)C)C(C)C)C(=O)N[C@@H](CCCCN)C(=O)N[C@@H](CCCCN)C(=O)N[C@@H](CC(C)C)C(N)=O` [GLFDVIKKVASVIKKL]: the minimal inhibitory concentration (MIC) in experiment [5] is 6.83 µM (≈ 12 µg/mL); in experiment [6], 28.4 µM (≈ 50 µg/mL); in experiment [7] it was above 56.9 µM; in experiment [8], at least 56.9 µM; in experiment [9] it was 56.9 µM (≈ 99.9 µg/mL); in experiment [10], 1.71 µM (≈ 3 µg/mL). Moreover, the values for the MIC in experiment [11], in [12] and in experiment [13] were 28.4 µM (≈ 50 µg/mL), 14.2 µM (≈ 25 µg/mL) and 28.4 µM (≈ 50 µg/mL), respectively.
For `CC[C@H](C)[C@H](NC(=O)CNC(=O)[C@H](C)NC(=O)[C@H](C)NC(=O)[C@@H](NC(=O)[C@H](CCCCN)NC(=O)[C@H](CC(C)C)NC(=O)[C@@H](NC(=O)[C@@H]1CCCN1C(=O)CNC(=O)[C@@H](NC(=O)[C@@H](N)Cc1ccccc1)[C@@H](C)CC)C(C)C)[C@@H](C)CC)C(=O)N[C@@H](CC(C)C)C(=O)N1CCC[C@H]1C(=O)N[C@H](C(=O)N[C@@H](C)C(=O)N[C@H](C(=O)N[C@H]1CSSC[C@@H](C(=O)O)NC(=O)[C@H](CCCCN)NC(=O)[C@H](CCCCN)NC(=O)[C@H](Cc2ccccc2)NC(=O)[C@H]([C@@H](C)CC)NC(=O)[C@H](CCCCN)NC1=O)[C@@H](C)CC)[C@@H](C)O` [FIGPVLKIAAGILPTAICKIFKKC], the MIC in experiment [15] turned out to be 1.84 µM (≈ 4.69 µg/mL); in experiment [16], 7.37 µM (≈ 18.7 µg/mL); in experiment [17], 1.84 µM (≈ 4.69 µg/mL); in [18] it was 3.69 µM (≈ 9.37 µg/mL); in [4], 0.919 µM (≈ 2.34 µg/mL).
Consider `CC[C@H](C)[C@H](NC(=O)CN)C(=O)N[C@@H](CC(C)C)C(=O)N[C@@H](CC(=O)O)C(=O)N[C@H](C(=O)N[C@H](C(=O)N[C@@H](CCCCN)C(=O)NCC(=O)N[C@H](C(=O)N[C@@H](C)C(=O)N[C@@H](CCCCN)C(=O)N[C@@H](CC(=O)O)C(=O)N[C@H](C(=O)N[C@@H](C)C(=O)N[C@@H](C)C(=O)N[C@@H](Cc1cnc[nH]1)C(=O)N[C@@H](CC(C)C)C(=O)N[C@@H](CC(C)C)C(=O)N[C@@H](CC(N)=O)C(=O)N[C@@H](CCSC)C(=O)N[C@H](C(=O)N[C@@H](CCCCN)C(=O)N[C@H]1CSSC[C@@H](C(=O)O)NC(=O)CNC(=O)[C@H]([C@@H](C)O)NC(=O)[C@H]([C@@H](C)CC)NC(=O)[C@H](CCCCN)NC1=O)C(C)C)C(C)C)C(C)C)C(C)C)[C@@H](C)O` [GILDTVKGVAKDVAAHLLNMVKCKITGC], for which the MIC in experiment [1] was at least 160 µM; in [2], at least 50 µM; in experiment [4], 80 µM (≈ 232 µg/mL).
As for `CCC(C)[C@H](N=C(O)C(CO)N=C(O)[C@H](CO)N=C(O)[C@@H](N=C(O)C(CC(C)C)N=C(O)CN)C(C)C)C(O)=NCC(O)=N[C@@H](CCCNC(=N)N)C(O)=N[C@@H](C)C(O)=N[C@@H](CC(C)C)C(O)=NCC(O)=NCC(O)=N[C@@H](CC(C)C)C(O)=N[C@@H](CC(C)C)C(O)=N[C@@H](C)C(O)=NC(CC(=O)O)C(O)=NC(C(O)=N[C@@H](C(O)=N[C@H](CCCCN)C(O)=N[C@H](CO)C(O)=N[C@H](CCCCN)C(O)=NCC(O)=N[C@H](CCC(=N)O)C(=O)N1CCCC1C(O)=N[C@H](C)C(=O)O)C(C)C)C(C)C` (some centres undefined) [GLVSSIGRALGGLLADVVKSKGQPA], the minimum inhibitory concentration (MIC) in experiment [5] was at least 41.8 µM; in experiment [6], at least 41.8 µM; in experiment [7] it was above 41.8 µM; in [8], 10.4 µM (≈ 25 µg/mL); in experiment [9] it was above 41.8 µM; in experiment [10] it was at least 41.8 µM. The MIC in experiment [11], in experiment [12] and in experiment [13] was at least 41.8 µM each time.
As for `CC[C@H](C)[C@H](NC(=O)[C@H](CO)NC(=O)[C@@H]1CCCN1C(=O)[C@H](C)NC(=O)CNC(=O)[C@H](CC(C)C)NC(=O)[C@H](CCCN=C(N)N)NC(=O)[C@H](CCSC)NC(=O)[C@H](CCCN=C(N)N)NC(=O)[C@H](CCCN=C(N)N)NC(=O)[C@H](CCC(N)=O)NC(=O)[C@H](Cc1c[nH]c2ccccc12)NC(=O)[C@H](CCC(N)=O)NC(=O)[C@@H](N)Cc1ccc(O)cc1)C(=O)N[C@H](C(=O)O)[C@@H](C)O` [YQWQRRMRLGAPSIT], the MIC in experiment [14] is at least 322 µM.
